Where two headings read alike, the source gives them in different places.
Legend:
[1] = tested on: wild-type HIV-1 IIIB strain; experiment: Antiviral activity in MT4 LTR-EGFP cellular assay; assay type: cell-based; settings: Human immunodeficiency virus 1, 72 h; wild-type HIV-1 IIIB, MT4 LTR-EGFP cells, three days after infection; pEC50 = -log10(EC50); read-out: Antiviral Activity IIIB pEC50 (converted)
Experimental: (§1) Assay 1 &2: Antiviral Activity/Toxicity
The compounds of the present invention were tested for antiviral activity in a cellular assay, which was performed according to the following procedure.
The human T-cell line MT4 is engineered with Green Fluorescent Protein (GFP) and an HIV-specific promoter, HIV-1 long terminal repeat (LTR). This cell line is designated MT4 LTR-EGFP, and can be used for the in vitro evaluation of anti-HIV activity of investigational compounds. In HIV-1 infected cells, the Tat protein is produced which upregulates the LTR promotor and finally leads to stimulation of the GFP reporter production, allowing measuring ongoing HIV-infection fluorometrically.
(§2) The ratio of CC50 to EC50 is defined as the selectivity index (SI) and is an indication of the selectivity of the anti-HIV activity of the inhibitor. The ultimate monitoring of HIV-1 infection and cytotoxicity is done using a scanning microscope. Image analysis allows very sensitive detection of viral infection. Measurements are done before cell necrosis, which usually takes place about five days after infection, in particular measurements are performed three days after infection.
A pEC50 value corresponds to −log10(EC50). A pCC50 value corresponds to −log10(CC50).

[2] = Cytotoxicity in mock-infected MT4 CMV-EGFP cells; assay type: cell-based; settings: human, pCC50 = -log10(CC50), read-out: Toxicity MT4 pCC50 (converted)
Excerpt: as §1
Analogously, MT4 cells are engineered with GFP and the constitutional cytomegalovirus (CMV) promotor. This cell line is designated MT4 CMV-EGFP, and can be used for the in vitro evaluation of cytotoxicity of investigational compounds. In this cell line, GFP levels are comparably to those of infected MT4 LTR-EGFP cells. Cytotoxic investigational compounds reduce GFP levels of mock-infected MT4 CMV-EGFP cells.
as §2, with “Effective concentration values such as 50% effective concentration (EC50) can be determined and are usually expressed in μM. An EC50 value is defined as the concentration of test compound that reduces the fluorescence of HIV-infected cells by 50%. The 50% cytotoxic concentration (CC50 in μM) is defined as the concentration of test compound that reduces fluorescence of the mock-infected cells by 50%. The ratio” for “The ratio”
Table 2 lists pEC50 values against the wild-type HIV-1 IIIB strain as well as pCC50 values for a selected number of compounds of the invention. A pEC50 value corresponds to −log10(EC50). A pCC50 value corresponds to −log10(CC50).

[3] = in vitro; assay type: in vitro ADME, human; settings: human, pH 7.4
Excerpt: Assay 3: Metabolic Stability of Test Compounds (HLM15′)
Sub-cellular tissue preparations are made according to Gorrod et al. (Xenobiotica, 5, pp. 453-462 (1975)) by centrifugal separation after mechanical homogenization of tissue. Human liver tissue is rinsed in ice-cold 0.1 M Tris-HCl (pH 7.4) buffer to wash excess blood. Tissue is then blotted dry, weighed and chopped coarsely using surgical scissors. The tissue pieces are homogenized in 3 volumes of ice-cold 0.1 M phosphate buffer (pH 7.4) using either a Potter-S (Braun, Italy) equipped with a Teflon pestle or a Sorvall Omni-Mix homogenizer, for 7×10 sec. In both cases, the vessel is kept in/on ice during the homogenization process. Tissue homogenates are centrifuged at 9000×g for 20 min at 4° C. using a Sorvall centrifuge or Beckman Ultracentrifuge. The resulting supernatant can be stored at −80° C. and is designated ‘S9’. The S9 fraction is centrifuged at 100,000×g for 60 min at 4° C. using a Beckman ultracentrifuge. The resulting supernatant is carefully aspirated, aliquoted and designated ‘cytosol’. The pellet is re-suspended in 0.1 M phosphate buffer (pH 7.4) in a final volume of 1 ml per 0.5 g original tissue weight and designated ‘microsomes’. All sub-cellular fractions are aliquoted, immediately frozen in liquid nitrogen and stored at −80° C. until use.
Heat-inactivated (10 min at 95° C.) ‘S9’ or microsomes were used for blank experiments. Reaction mixtures were incubated at 37° C. for 5 min, after which the reaction was started by the addition of 0.8 mM β-NADP. The reaction was incubated for 0 or 15 min. Next, the reaction was stopped by addition of 2 volumes of DMSO (or acetonitrile). Samples were centrifuged (10 min, 900×g) and analyzed by LC-MS.

[4] = molecular target: T1, CYP3A4 (Homo sapiens, UniProt P08684); experiment: CYP450 inhibition, fluorescent substrate assay, CYP3A4; assay type: biochemical; settings: 10 μM test compound; for inhibition at 10 min, 10 μM: E. coli expressed CYP3A4, pH 7.4, probe DBF (1 μM), substrate DBF 1 μM, read-out: 3A4-DBF % inh.
T1 construct: host or cells: E. coli
T1 sequence (P08684 whole entry): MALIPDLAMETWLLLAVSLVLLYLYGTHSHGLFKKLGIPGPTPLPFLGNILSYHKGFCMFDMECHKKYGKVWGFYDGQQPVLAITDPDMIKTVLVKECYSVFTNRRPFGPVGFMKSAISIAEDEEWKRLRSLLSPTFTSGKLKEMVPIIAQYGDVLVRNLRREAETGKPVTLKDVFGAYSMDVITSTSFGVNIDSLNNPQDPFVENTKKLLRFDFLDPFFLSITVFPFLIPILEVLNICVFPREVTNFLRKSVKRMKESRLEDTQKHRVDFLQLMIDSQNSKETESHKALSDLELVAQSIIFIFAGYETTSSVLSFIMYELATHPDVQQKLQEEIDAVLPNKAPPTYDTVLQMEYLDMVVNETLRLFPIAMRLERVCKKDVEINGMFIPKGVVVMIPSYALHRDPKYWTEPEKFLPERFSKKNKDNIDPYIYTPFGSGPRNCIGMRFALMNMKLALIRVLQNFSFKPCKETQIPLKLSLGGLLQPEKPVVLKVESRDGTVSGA
Experimental: (§3) Assay 4: CYP450 Inhibition […] This fluorescent molecule was measured using a fluorescent plate reader (Victor2 (Wallac) or Fluoroskan (Labsystems)). Compounds inhibiting the enzymatic reaction will result in a decrease of fluorescent signal. CYP P450 enzymes were prepared in house or commercially bought and stored at −80° C. [table] The assay was performed in black 96 well Costar plates. Test compounds were added to a CYP P450 enzyme solution in the presence of an NADPH generating system. After 5 min of preincubation at 37° C., the freshly prepared, phosphate buffered (pH 7.4) substrate solution was added. Known CYP P450 inhibitors were used as positive controls, negative controls were run without CYP P450 enzyme. For final reaction mixture concentrations, see Table 6. […] Then, the reaction was stopped by the addition of 200 μl acetonitrile, and the fluorescent signal was detected. [table] […] Inhibition of TMC114 Metabolisation

[5] = molecular target: CYP2C9 (Homo sapiens, UniProt P11712); experiment: CYP450 inhibition, fluorescent substrate assay, CYP2C9; assay type: biochemical; settings: pH 7.4
Chain of CYP2C9 (P11712 whole entry): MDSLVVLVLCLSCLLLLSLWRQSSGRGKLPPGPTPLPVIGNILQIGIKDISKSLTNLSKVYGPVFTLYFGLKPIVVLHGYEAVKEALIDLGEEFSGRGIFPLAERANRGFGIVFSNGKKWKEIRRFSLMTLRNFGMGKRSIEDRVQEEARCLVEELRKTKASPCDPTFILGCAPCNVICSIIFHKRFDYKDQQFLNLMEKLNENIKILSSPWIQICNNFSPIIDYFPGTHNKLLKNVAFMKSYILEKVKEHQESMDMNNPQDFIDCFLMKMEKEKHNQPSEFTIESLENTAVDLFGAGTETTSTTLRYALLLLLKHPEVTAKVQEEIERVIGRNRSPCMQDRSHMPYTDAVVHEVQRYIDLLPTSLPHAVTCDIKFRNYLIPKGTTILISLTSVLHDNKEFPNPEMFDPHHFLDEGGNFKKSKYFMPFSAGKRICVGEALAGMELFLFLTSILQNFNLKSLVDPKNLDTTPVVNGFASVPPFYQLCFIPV
Experimental: as §3

[6] = molecular target: T2, CYP2D6 (Homo sapiens, UniProt P10635); experiment: CYP450 inhibition, fluorescent substrate assay, CYP2D6; assay type: biochemical; settings: E. coli expressed CYP2D6, pH 7.4, probe AMMC (3 μM), 10 μM test compound, substrate AMMC 3 μM, read-out: 2D6-AMMC % inh.
T2 construct: host or cells: E. coli
T2 sequence (P10635 whole entry): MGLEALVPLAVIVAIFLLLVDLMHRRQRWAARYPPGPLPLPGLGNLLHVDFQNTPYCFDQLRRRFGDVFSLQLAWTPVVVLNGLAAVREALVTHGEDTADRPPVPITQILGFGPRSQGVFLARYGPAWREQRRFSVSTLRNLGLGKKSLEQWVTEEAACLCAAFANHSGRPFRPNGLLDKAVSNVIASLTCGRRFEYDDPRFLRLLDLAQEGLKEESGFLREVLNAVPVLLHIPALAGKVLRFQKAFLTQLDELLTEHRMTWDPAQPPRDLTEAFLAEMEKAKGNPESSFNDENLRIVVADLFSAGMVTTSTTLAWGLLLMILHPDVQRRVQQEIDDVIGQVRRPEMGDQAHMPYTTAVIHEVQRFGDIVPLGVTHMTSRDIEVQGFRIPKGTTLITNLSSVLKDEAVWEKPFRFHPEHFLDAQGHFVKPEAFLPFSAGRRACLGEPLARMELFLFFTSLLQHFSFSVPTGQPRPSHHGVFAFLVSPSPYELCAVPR
Experimental: as §3

[7] = molecular target: T3, CYP1A2 (Homo sapiens, UniProt P05177); experiment: CYP450 inhibition, fluorescent substrate assay, CYP1A2; assay type: biochemical; settings: E. coli expressed CYP1A2, pH 7.4, probe CEC (5 μM), 10 μM test compound, substrate CEC 5 μM, read-out: 1A2-CEC % inh.
T3 construct: host or cells: E. coli
T3 sequence (P05177 1-516): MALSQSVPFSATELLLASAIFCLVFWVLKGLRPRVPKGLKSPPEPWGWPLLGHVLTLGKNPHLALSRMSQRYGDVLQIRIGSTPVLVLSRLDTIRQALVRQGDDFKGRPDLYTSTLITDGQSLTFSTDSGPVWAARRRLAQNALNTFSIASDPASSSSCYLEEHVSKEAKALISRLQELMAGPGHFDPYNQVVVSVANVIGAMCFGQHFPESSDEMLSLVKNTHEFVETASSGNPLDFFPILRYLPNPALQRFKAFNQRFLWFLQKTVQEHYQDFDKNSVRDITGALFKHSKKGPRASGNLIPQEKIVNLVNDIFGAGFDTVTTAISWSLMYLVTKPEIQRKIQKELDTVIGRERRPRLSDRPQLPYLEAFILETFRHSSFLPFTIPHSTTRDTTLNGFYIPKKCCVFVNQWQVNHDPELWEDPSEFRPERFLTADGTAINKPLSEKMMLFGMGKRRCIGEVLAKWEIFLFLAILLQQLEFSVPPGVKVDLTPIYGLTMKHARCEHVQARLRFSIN
Experimental: as §3

[8] = molecular target: T4, CYP2C19 (Homo sapiens, UniProt P33261); experiment: CYP450 inhibition, fluorescent substrate assay, CYP2C19; assay type: biochemical; settings: E. coli expressed CYP2C19, pH 7.4, probe CEC (25 μM), 10 μM test compound, substrate CEC 25 μM, read-out: 2C19-CEC % inh.
T4 construct: host or cells: E. coli
T4 sequence (P33261 whole entry): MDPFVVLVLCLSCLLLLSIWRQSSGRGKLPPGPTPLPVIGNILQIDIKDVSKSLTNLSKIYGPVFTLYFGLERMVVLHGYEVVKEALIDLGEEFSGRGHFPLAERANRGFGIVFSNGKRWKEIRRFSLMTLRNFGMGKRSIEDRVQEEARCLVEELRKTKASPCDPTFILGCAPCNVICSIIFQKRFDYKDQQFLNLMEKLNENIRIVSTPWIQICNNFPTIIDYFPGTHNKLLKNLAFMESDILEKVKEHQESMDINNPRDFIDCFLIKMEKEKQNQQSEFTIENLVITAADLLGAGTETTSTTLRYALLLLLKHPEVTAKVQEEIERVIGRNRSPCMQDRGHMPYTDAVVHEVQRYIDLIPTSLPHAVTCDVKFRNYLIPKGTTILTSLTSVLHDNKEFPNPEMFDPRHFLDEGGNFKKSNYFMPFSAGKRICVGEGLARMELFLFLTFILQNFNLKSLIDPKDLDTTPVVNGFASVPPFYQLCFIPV
Experimental: as §3

[9] = E. coli expressed CYP3A4, pH 7.4, probe BFC (150 μM), substrate BFC 150 μM, read-out: 3A4-BFC % inh.
[10] = E. coli expressed CYP3A4, pH 7.4, probe BQ (60 μM), substrate BQ 60 μM, read-out: 3A4-BQ % inh.

SMILES | EC50 [1] [µM] | CC50 at 3 days [2] [µM] | recovery at 15 min, 5 μM [3] [%] | inhibition at 30 min, 10 μM [4, 9] [%] | inhibition at 30 min, 10 μM [4, 10] [%] | inhibition at 10 min, 10 μM [4] [%] | inhibition at 30 min, 10 μM [5] [%] | inhibition at 45 min, 10 μM [6] [%] | inhibition at 15 min, 10 μM [7] [%] | inhibition at 30 min, 10 μM [8] [%]
CC(C)CN(C[C@@H](O)[C@H](Cc1ccccc1)NC(=O)OCc1cncs1)C(=O)c1ccncc1 [Compound C8] | > 100 | > 100 | 81 | 91 | 79 | 91 | 95 | 39 | 4 | 76
CC(C)CN(C[C@@H](O)[C@H](Cc1ccccc1)NC(=O)OCc1cncs1)C(=O)c1ccccn1 [Compound C9] | > 100 | > 100 | 55 | 91 | 78 | 89 | 85 | 66 | 4 | 64
Cc1cccc(C(=O)N(CC(C)C)C[C@@H](O)[C@H](Cc2ccccc2)NC(=O)OCc2cncs2)c1 [Compound C10] | > 100 | > 100 | 47 | 95 | 79 | 93 | 96 | 62 | 33 | 92
CC(C)CN(C[C@@H](O)[C@H](Cc1ccccc1)NC(=O)OCc1cncs1)C(=O)c1cccc(C(F)(F)F)c1 [Compound C11] | 38 | 34.7 | 52 | 94 | 78 | 99 | 97 | 86 | 45 | 100
CC(C)CN(C[C@@H](O)[C@H](Cc1ccccc1)NC(=O)OCc1cncs1)C(=O)c1cnc2ccccc2n1 [Compound C12, 1S-2R-{1-Benzyl-2-hydroxy-3-[isobutyl-(quinoxaline-2-carbonyl)-amino]-propyl}-carbamic acid thiazol-5-ylmethyl ester] | 60.3 | 61.7 | 67 | 70 | 79 | 93 | 92 | 0 | 21 | 81
CC(C)CN(C[C@@H](O)[C@H](Cc1ccccc1)NC(=O)OCc1cncs1)C(=O)c1cccnc1 [Compound C13] | > 100 | > 100 | 69 | 81 | 84 | 94 | 95 | 64 | 8 | 67
CC(C)CN(C[C@@H](O)[C@H](Cc1ccccc1)NC(=O)OCc1cncs1)C(=O)c1ccc[nH]1 [Compound C14] | 79.4 | 89.1 | 24 | 84 | 80 | 91 | 98 | 67 | 56 | 87
CC(C)CN(C[C@@H](O)[C@H](Cc1ccccc1)NC(=O)OCc1cncs1)C(=O)c1cccc(Cl)c1 [Compound C15] | 50.1 | 42.7 | 57 | 75 | 80 | 92 | 97 | 41 | 51 | 92
CC(C)CN(C[C@@H](O)[C@H](Cc1ccccc1)NC(=O)OCc1cncs1)C(=O)c1ccc(Cl)cc1 [Compound C16] | 38.9 | 40.7 | 59 | 71 | 82 | 92 | 97 | 43 | 50 | 90

From patent US8664391B2, “Amide compounds as boosters of antivirals” (Janssen R&D Ireland Ltd, priority 2008, dated 2014)
